Read-outs that look alike come from different tables or passages of the source.
Tests used:
GABA receptors = details: cited from earlier work
[1] = CCI rats, cited from earlier work
[2] = test system: subunit of a voltage-gated calcium channel; details: cited from earlier work
[3] = Mouse antiphenylquinone writhing (PQW) test; assay type: in vivo; details: Mus musculus
Protocol: (§1) The anti-phenylquinone writhing (PQW) test modified from the methods of Siegmund et al. (Proc. Soc. Exp. Biol. Med. 95: 729-731, 1957) and Blumberg et al. (Proc. Exp. Biol. Med. 118: 763-767, 1965) was used to assess the relief from the simulated symptoms of neuropathic pain in mice. Male CF1 mice (Charles River Breeding Laboratories, Wilmington, Mass.), fasted for 16-22 hours and weighing 18-23 g, were injected with randomized and coded doses of test compounds, then challenged with 1.25 mg/kg i.p. phenyl-p-benzoquinone (phenylquinone) 5 minutes prior to the specified observation time. The phenylquinone solution (0.1 mg/ml in 5% aqueous ethanol) was prepared daily and stored in foil-wrapped amber bottles to limit degradation. Mice were observed 10 minutes for the presence or absence of the characteristic abdominal constriction and stretching response beginning 30 minutes after injection of the test compound. Activity was calculated as the percentage of mice failing to respond to the phenylquinone challenge dose. […] Median effective doses (ED50's) and 95% confidence limits were determined numerically by the methods of Thompson (Bacteriological Rev. 11: 115-145, 1947), and Litchfield and Wilcoxon (J. Pharmacol. Exp. Ther. 96: 99-113, 1949).

Mouse Tail-Flick = assay type: in vivo; details: Mus musculus; read-out: Mouse Tail-Flick ED50 (unit inferred)
Rat Hot Plate = assay type: in vivo
Formalin model = assay type: in vivo; details: rat, versus saline control
Excerpt: Formalin induces inflammatory stimulation of peripheral nerves that results in sensitization of CNS nociceptive transmission pathways. There are two phases of formalin-induced nociception: phase I—an acute nociceptive component; and phase II—a chronic nociceptive component characterized by hyperalgesia.
On the morning of formalin testing, a small metal band (0.5 g) was loosely placed around the right hind paw. The rat was placed in a cylindrical Plexiglas chamber for adaptation for a minimum of 30 minutes. Compound A, venlafaxine or a saline control was administered into the dorsal surface of the right hindpaw of the rat. The animal was then placed into the chamber of the automated formalin apparatus where movement of the formalin-injected paw was monitored and the number of paw flinches tallied by minute over the next sixty minutes. Upon completion of the test the animal was removed and euthanized.

Rat Tail-Flick = assay type: in vivo
[4] = Chung model (tactile allodynia); assay type: in vivo, rat; details: rat; two hours post injection; doses 200 mg/kg and 100 mg/kg
Protocol: This model for neuropathic pain was performed on rats using the surgical procedure described by Kim and Chung (1992) to induce an allodynic state. Briefly, the left L-5 and L-6 spinal nerves were isolated adjacent to the vertebral column and ligated with 6-0 silk suture distal to the dorsal root ganglion under isoflurane anesthesia. This model allows for spinal cord structural reorganization and growth of low threshold mechnoreceptor fibers from the spinal cord with synaptic connections and rewiring of the dorsal horn. This leads to spontaneous firing of invading sympathetic nerves and upregulation of receptors and voltage-dependent channels; i.e. mimics the development of allodynia (nociceptive response to a previously neutral stimulus). The rats were allowed a minimum of 7-days postoperative recovery period before testing.
To assess tactile thresholds in the Chung model, rats were placed in a clear plastic, wire mesh-bottomed cage, divided into individual compartments. Animals were allowed to acclimate and then baseline thresholds were assessed prior to drug treatment. To assess the 50% mechanical threshold for paw withdrawal, von Frey hairs were applied to the plantar mid-hindpaw, avoiding the tori (footpads). The eight von Frey hairs used are designated by [log (10*force required to bend hair, mg)] and range from 0.4-15.1 grams (#'s 3.61-5.18). Each hair was pressed perpendicularly against the paw with sufficient force to cause slight bending, and held for approximately 6-8 seconds. A positive response was noted if the paw was sharply withdrawn. Flinching immediately upon removal of the hair was also considered a positive response. Absence of a response (“−”) was cause to present the next consecutive stronger stimulus; a positive response (“+”) was cause to present the next weaker stimulus. Stimuli were presented successively until either six data points were collected, or the maximum or minimum stimulus was reached. If a minimum stimulus was reached and positive responses still occurred, the threshold was assigned an arbitrary minimum value of 0.25 grams; if a maximum stimulus was presented and no response occurred, a maximum threshold value of 15 grams was assigned. If a change in response occurs, either “−” to “+” or “+” to “−”, causing a change in the direction of stimulus presentation from descending to ascending or vice-versa, four additional data points were collected subsequent to the change.

Rat PQW = assay type: in vivo; details: Rattus norvegicus
Protocol: as §1

[5] = sometimes fatally; U.S. Food and Drug Administration; cited from earlier work
[6] = intraperitoneal 10 to 75 mg/kg, at two and four hours
[7] = intraperitoneal, high doses of up to 600 mg/kg

**Q.** With CC(O)C1(c2cccc(Cl)c2)CCCN(C)CC1 (stereo not shown) as the compound, how does the melting point read?
**A.** 123 to 124 °C

**Q.** For CN1CCC(c2cccc(Cl)c2)(C(C)(C)O)C1 (stereo not shown), which melting point is on record?
**A.** 98 to 99 °C

**Q.** Which melting point does the source give for CCN1CCC(c2cccc(Cl)c2)(C(C)O)CC1 (stereo not shown) here?
**A.** 89 to 94 °C

**Q.** For NCC1(CC(=O)O)CCCCC1 [gabapentin], which “effect on GABA receptors” value (GABA receptors) is on record?
**A.** no direct effect

**Q.** What about the “responses on the control side” value [1] of the same compound?
**A.** no significant change

**Q.** And the heat hyperalgesia [1, 6]?
**A.** suppressed

**Q.** What about the mechanical allodynia [1, 6] of the same compound?
**A.** suppressed

**Q.** What about the mechanical hyperalgesia ([1]; intraperitoneal 10 to 75 mg/kg) of the same compound?
**A.** lacked effect

**Q.** What about the “responses at 24 hours” value ([1]; intraperitoneal, 24 hours) of the same compound?
**A.** abnormal responses had returned

**Q.** What about the “pattern of effects after intrathecal injection” value ([1]; intrathecal to the lumbar spinal cord, 37.5 to 150 mcg/kg) of the same compound?
**A.** the pattern was similar

**Q.** What about the “binding to a subunit of a voltage-gated calcium channel” value [2] of the same compound?
**A.** binds with high affinity

**Q.** For COc1cccc(C2(O)CCCCC2CN(C)C)c1 (stereo not shown) [TRAMADOL, Tramadol, reference compound], which ED50 [3] is on record?
**A.** 7.8 mg/kg

**Q.** What about the ED50 (Mouse Tail-Flick) of the same compound?
**A.** 31.2 mg/kg

**Q.** What about the ED50 (Rat Hot Plate; Rattus norvegicus) of the same compound?
**A.** 40 mg/kg

**Q.** Which “formalin test, paw flinches, phase I” value (Formalin model; all administered doses (200/100/50 mg per kg)) does the source give for COc1ccc(C(CN(C)C)C2(O)CCCCC2)cc1 (stereo not shown) [Venlafaxine, reference compound] here?
**A.** statistically significant effects

**Q.** And the “formalin test, paw flinches, phase II” value (Formalin model; all administered doses)?
**A.** statistically significant effects only during phases I and IIA

**Q.** And the “formalin test, paw flinches, phase IIA” value (Formalin model; all administered doses)?
**A.** statistically significant effects

**Q.** And the “formalin test, paw flinches, Phase IIB” value (Formalin model)?
**A.** No statistical significance

**Q.** What about the “Rat Tail-Flick” value (Rat Tail-Flick) of the same compound?
**A.** Inactive

**Q.** And the “Rat Hot Plate ED50” value (Rat Hot Plate; rat)?
**A.** Inactive

**Q.** And the “effects on tactile allodynia” value [4]?
**A.** statistically significant effects

**Q.** And the ED50 (Rat PQW)?
**A.** 39.2 mg/kg

**Q.** For NC(=O)OCC(COC(N)=O)c1ccccc1 [Felbamate, felbamate], which toxicity in humans [5] is on record?
**A.** liver failure and aplastic anemia

**Q.** And the heat hyperalgesia [1, 7]?
**A.** completely abolished

**Q.** What about the hindpaw guarding [1, 7] of the same compound?
**A.** completely abolished

**Q.** And the mechanical allodynia [1, 7]?
**A.** completely abolished

**Q.** And the mechanical hyperalgesia [1, 7]?
**A.** completely abolished

**Q.** And the “responses in the control hindpaw” value ([1]; intraperitoneal)?
**A.** unaffected

Reference: patent US6825217B2, “Carbinols for the treatment of neuropathic dysfunction” (Endo Pharmaceuticals, Inc., priority 2001, dated 2004)
